# From US6573246B1, “Modified ether glyceroglycolipids” (The Liposome Company, Inc., priority 1995, dated 2003)
# Where two headings read alike, the source gives them in different places.
# Key:
# [1] = test system: MCF-7 (breast adenocarcinoma) cells; assay: growth inhibition of MCF-7 cells in culture; type: cell-based, human
# Description: (§1) Human epithelial cancer cell lines were grown from frozen stocks originally obtained from the ATCC, in media commonly used for growing these cells in culture. For example, A549 cells (non-small cell lung adenocarcinoma) were cultured in Ham's F-12 medium, T84 cells (colon carcinoma) were cultured in a 1:1 mixture of F-12 and DMEM while MCF-7 (breast adenocarcinoma) and A427 (large cell lung carcinoma) cells were cultured in DMEM. The media were supplemented with 10% fetal bovine serum, penicillin (50 U/ml), streptomycin (50 micogram/ml) and fungizone (0.5 microgram/ml). OVCAR-3 cells (ovarian adenocarcinoma) were cultured in RPMI 1640 medium supplemented with 20% FBS and 10 microgram/ml insulin.
# (§2) Cells were subcultured into 24-well plates and the cell number was monitored daily. When the cells were in log phase, the media was replaced with one containing the required drug concentration, and the cells were incubated for 72 h. The increase in cell numbers relative to control wells (without any drug) was determined after the incubation. Stock solutions of the drugs ([…]) were prepared in ethanol and stored at −20 deg. C. Etherlipid solutions (30 micromolar) in the appropriate media were prepared fresh on the day of the experiment and serially diluted to give the required concentrations. The final concentration of ethanol in all wells was 0.1% (v/v).
# (§3) Gl50 values are given as the mean ± standard deviation; the Gl50 value from each experiment “n” was generated from three individual wells on two separate plates (six total wells); n=1 for compounds 3-6; n=2 for most cell lines treated with compound 2 ^an=3; ^bn=2; ^cn=6; ^dn=8.
# [2] = test system: T84 cells (colon carcinoma); assay: growth inhibition of T84 cells in culture; type: cell-based, human; settings: for IC50 / proliferation: increase in cell numbers relative to control wells (control = 100): 72 h; for IC50: read-out: Gl50 (concentration that inhibited cell growth by 50% in comparison to control cultures)
# Description: as §1, §2
# [3] = test system: A549 cells (non-small cell lung adenocarcinoma); assay: growth inhibition of A549 cells in culture; type: cell-based, human
# Description: as §1, §2, §3
# [4] = test system: A427 (large cell lung carcinoma) cells; assay: growth inhibition of A427 cells in culture; type: cell-based, human; settings: for IC50 / proliferation: increase in cell numbers relative to control wells (control = 100): 72 h; for IC50: read-out: Gl50 (concentration that inhibited cell growth by 50% in comparison to control cultures)
# Description: as §1, §2
# [5] = test system: OVCAR-3 cells (ovarian adenocarcinoma); assay: growth inhibition of OVCAR-3 cells in culture; type: cell-based, human; settings: for growth: increase in cell numbers relative to control wells (control = 100): OVCAR-3, 72 h; for IC50: OVCAR-3 ovarian cancer cell line, read-out: Gl50 (the source's name)
# Description: as §1, §2
# [6] = test system: MCF-7/Adr (adriamycin-resistant) cells; assay: growth inhibition of MCF7/adr cells in culture; type: cell-based, human; settings: mean ± standard deviation, read-out: Gl50 (concentration of lipid required to inhibit the growth of fifty percent of the cells in culture)
# Description: (§4) The Gl50 values for edelfosine (1), 2′-deoxy-β-D-arabinopyranosyl (2), 2′-deoxy-α-D-arabinopyranosyl (3), 2-O-methyl-β-D-glucopyranosyl (4), 2′-O-methyl-β-D-mannopyranosyl (5) and α-D-mannopyransoyl (6) on A-549, MCF-7, Lewis Lung, MCF-7/Adr (adriamycin-resistant), P388, P-388/Adr, L1210 and L1210/vmdr cells were determined and are set forth below (see Table 4) as the concentration (micromolar) of lipid required to inhibit the growth of fifty percent of the cells in culture.
# as §3
# HT29 cells = assay: growth inhibition of HT29 cells in culture; type: cell-based; settings: mean ± standard deviation, read-out: Gl50 (concentration of lipid required to inhibit the growth of fifty percent of the cells in culture)
# L1210 cells = assay: growth inhibition of L1210 cells in culture; type: cell-based; settings: mean ± standard deviation, read-out: Gl50 (concentration of lipid required to inhibit the growth of fifty percent of the cells in culture)
# Description: as §4, §3
# L1210/vmdr cells = assay: growth inhibition of L1210/vmdr cells in culture; type: cell-based; settings: mean ± standard deviation, read-out: Gl50 (concentration of lipid required to inhibit the growth of fifty percent of the cells in culture)
# Description: as §4, §3
# [7] = MCF-7, 72 h, 10% FBS-supplemented medium, read-out: Gl50 (concentration that inhibited cell growth by 50% in comparison to control cultures)
# [8] = MCF-7, lipid concentration 5 μM, 72 h
# [9] = MCF-7, lipid concentration 10 μM, 72 h
# [10] = MCF-7, lipid concentration 15 μM, 72 h
# [11] = MCF-7, lipid concentration 20 μM, 72 h
# [12] = 72 h, 10% FBS-supplemented medium, read-out: Gl50 (concentration that inhibited cell growth by 50% in comparison to control cultures)
# [13] = lipid concentration 10 μM, 72 h
# [14] = lipid concentration 15 μM, 72 h
# [15] = lipid concentration 20 μM, 72 h
# [16] = MCF7, mean ± standard deviation, read-out: Gl50 (concentration of lipid required to inhibit the growth of fifty percent of the cells in culture)
# [17] = mean ± standard deviation, read-out: Gl50 (concentration of lipid required to inhibit the growth of fifty percent of the cells in culture)
structure (smiles),measurement,setting,value
"CCCCCCCCCCCCCCCCOC[C@H](CO[C@@H]1O[C@H](CO)[C@@H](O)[C@H](O)[C@H]1NC(C)=O)OC [B, 1-O-hexadecyl-2-O-methyl-3-O-(2′-acetamido-2′-deoxy-β-D-glucopyranosyl)-sn-glycerol]",IC50,[1]; [7],17 µM
same,proliferation: increase in cell numbers relative to control wells (control = 100),[1]; [8],81 ± 8
same,proliferation: increase in cell numbers relative to control wells (control = 100),[1]; [9],71 ± 6
same,proliferation: increase in cell numbers relative to control wells (control = 100),[1]; [10],58 ± 5
same,proliferation: increase in cell numbers relative to control wells (control = 100),[1]; [11],38 ± 2
same,proliferation: increase in cell numbers relative to control wells (control = 100),"[1]; MCF-7, lipid concentration 30 μM, 72 h",6 ± 3
same,IC50,[2]; 10% FBS-supplemented medium,> 30 µM
same,proliferation: increase in cell numbers relative to control wells (control = 100),[2]; lipid concentration 5 μM,96 ± 10
same,proliferation: increase in cell numbers relative to control wells (control = 100),[2]; lipid concentration 10 μM,79 ± 12
same,proliferation: increase in cell numbers relative to control wells (control = 100),[2]; lipid concentration 15 μM,77 ± 13
same,proliferation: increase in cell numbers relative to control wells (control = 100),[2]; lipid concentration 20 μM,79 ± 16
same,proliferation: increase in cell numbers relative to control wells (control = 100),[2]; lipid concentration 30 μM,61 ± 13
same,IC50,[3]; [12],9 µM
same,proliferation: increase in cell numbers relative to control wells (control = 100),"[3]; lipid concentration 5 μM, 72 h",91 ± 9
same,proliferation: increase in cell numbers relative to control wells (control = 100),[3]; [13],45 ± 3
same,proliferation: increase in cell numbers relative to control wells (control = 100),[3]; [14],15 ± 2
same,proliferation: increase in cell numbers relative to control wells (control = 100),[3]; [15],0
same,proliferation: increase in cell numbers relative to control wells (control = 100),"[3]; lipid concentration 30 μM, 72 h",0
same,IC50,[4]; 10% FBS-supplemented medium,24.5 µM
same,proliferation: increase in cell numbers relative to control wells (control = 100),[4]; lipid concentration 5 μM,93 ± 12
same,proliferation: increase in cell numbers relative to control wells (control = 100),[4]; lipid concentration 10 μM,92 ± 6
same,proliferation: increase in cell numbers relative to control wells (control = 100),[4]; lipid concentration 15 μM,86 ± 10
same,proliferation: increase in cell numbers relative to control wells (control = 100),[4]; lipid concentration 20 μM,71 ± 8
same,proliferation: increase in cell numbers relative to control wells (control = 100),[4]; lipid concentration 30 μM,24 ± 4
same,growth: increase in cell numbers relative to control wells (control = 100),[5]; lipid concentration 5 μM,68.8 ± 5.8
same,growth: increase in cell numbers relative to control wells (control = 100),[5]; lipid concentration 10 μM,52.9 ± 3.9
same,growth: increase in cell numbers relative to control wells (control = 100),[5]; lipid concentration 15 μM,34.6 ± 7.3
same,growth: increase in cell numbers relative to control wells (control = 100),[5]; lipid concentration 20 μM,26.0 ± 10.9
same,growth: increase in cell numbers relative to control wells (control = 100),[5]; lipid concentration 30 μM,4.7 ± 4.8
same,IC50,[5],4 µM
"CCCCCCCCCCCCCCCCOC[C@H](CO[C@@H]1C[C@H](O)[C@H](O)CO1)OC [compound 3, 1-O-Hexadecyl-2-O-methyl-3-O-(2′-deoxy-α-D-arabinopyransoyl)-sn-glycerol]",IC50,[1]; [16],24.4 ± 0.64 µM
same,IC50,[3]; [17],19.65 ± 0.07 µM
same,IC50,[6],24.4 ± 0.42 µM
same,IC50,HT29 cells,29.6 ± 0.28 µM
same,IC50,L1210 cells,18.8 ± 0.49 µM
same,IC50,L1210/vmdr cells,26.9 ± 1.06 µM
"CCCCCCCCCCCCCCCCOC[C@H](CO[C@H]1O[C@H](CO)[C@@H](O)[C@H](O)[C@@H]1OC)OC [compound 5, 1-O-Hexadecyl-2-O-methyl-3-O-(2′-O-methyl-α-D-mannopyransoyl)-sn-glycerol]",IC50,[1]; [16],18.2 µM
same,IC50,[3]; [17],15.55 ± 0.07 µM
same,IC50,[6],18.55 ± 0.07 µM
same,IC50,HT29 cells,20 ± 0.28 µM
same,IC50,L1210 cells,15.5 ± 0.35 µM
same,IC50,L1210/vmdr cells,16.5 ± 1.13 µM
"CCCCCCCCCCCCCCCCOC[C@H](CO[C@@H]1O[C@H](CO)[C@@H](O)[C@H](O)[C@H]1N)OC [A, 1-O-hexadecyl-2-O-methyl-3-O-(2′-amino-2′-deoxy-β-D-glucopyranosyl)-sn-glycerol]",concentration cytotoxic to the cells,"[1]; MCF-7, 10% FBS-supplemented medium",16 µM
same,IC50,[1]; [7],6.5 µM
same,proliferation: increase in cell numbers relative to control wells (control = 100),[1]; [8],60.60 ± 7.14
same,proliferation: increase in cell numbers relative to control wells (control = 100),"[1]; MCF-7, lipid concentration 6.5 μM, 72 h",44.05 ± 11.70
same,proliferation: increase in cell numbers relative to control wells (control = 100),"[1]; MCF-7, lipid concentration 8.0 μM, 72 h",31.46 ± 5.56
same,proliferation: increase in cell numbers relative to control wells (control = 100),[1]; [9],14.42 ± 8.39
same,proliferation: increase in cell numbers relative to control wells (control = 100),"[1]; MCF-7, lipid concentration 12.5 μM, 72 h",3.90 ± 5.75
same,proliferation: increase in cell numbers relative to control wells (control = 100),[1]; [10],0
same,proliferation: increase in cell numbers relative to control wells (control = 100),[1]; [11],0
same,concentration cytotoxic to the cells,[2]; 10% FBS-supplemented medium,20 µM
same,IC50,[2]; 10% FBS-supplemented medium,12.2 µM
same,proliferation: increase in cell numbers relative to control wells (control = 100),[2]; lipid concentration 5 μM,89.71 ± 12.72
same,proliferation: increase in cell numbers relative to control wells (control = 100),[2]; lipid concentration 7.5 μM,75.16 ± 10.79
same,proliferation: increase in cell numbers relative to control wells (control = 100),[2]; lipid concentration 10 μM,64.89 ± 11.56
same,proliferation: increase in cell numbers relative to control wells (control = 100),[2]; lipid concentration 12.5 μM,39.59 ± 9.50
same,proliferation: increase in cell numbers relative to control wells (control = 100),[2]; lipid concentration 15 μM,15.06 ± 7.23
same,proliferation: increase in cell numbers relative to control wells (control = 100),[2]; lipid concentration 20 μM,0
same,concentration cytotoxic to the cells,[3]; 10% FBS-supplemented medium,10.5 µM
same,IC50,[3]; [12],8.3 µM
same,proliferation: increase in cell numbers relative to control wells (control = 100),"[3]; lipid concentration 5 μM, 72 h",82.28 ± 4.66
same,proliferation: increase in cell numbers relative to control wells (control = 100),"[3]; lipid concentration 6.5 μM, 72 h",67.39 ± 6.18
same,proliferation: increase in cell numbers relative to control wells (control = 100),"[3]; lipid concentration 8.0 μM, 72 h",45.17 ± 12.06
same,proliferation: increase in cell numbers relative to control wells (control = 100),[3]; [13],0
same,proliferation: increase in cell numbers relative to control wells (control = 100),"[3]; lipid concentration 12.5 μM, 72 h",0
same,proliferation: increase in cell numbers relative to control wells (control = 100),[3]; [14],0
same,proliferation: increase in cell numbers relative to control wells (control = 100),[3]; [15],0
same,concentration cytotoxic to the cells,[4]; 10% FBS-supplemented medium,10.5 µM
same,IC50,[4]; 10% FBS-supplemented medium,7 µM
same,proliferation: increase in cell numbers relative to control wells (control = 100),[4]; lipid concentration 5 μM,68.98 ± 9.25
same,proliferation: increase in cell numbers relative to control wells (control = 100),[4]; lipid concentration 6.5 μM,49.74 ± 5.16
same,proliferation: increase in cell numbers relative to control wells (control = 100),[4]; lipid concentration 8.0 μM,4.29 ± 5.16
same,proliferation: increase in cell numbers relative to control wells (control = 100),[4]; lipid concentration 10 μM,0
same,proliferation: increase in cell numbers relative to control wells (control = 100),[4]; lipid concentration 12.5 μM,0
same,proliferation: increase in cell numbers relative to control wells (control = 100),[4]; lipid concentration 15 μM,0
same,proliferation: increase in cell numbers relative to control wells (control = 100),[4]; lipid concentration 20 μM,0
same,growth: increase in cell numbers relative to control wells (control = 100),[5]; lipid concentration 5 μM,42.9 ± 13.4
same,growth: increase in cell numbers relative to control wells (control = 100),[5]; lipid concentration 10 μM,7.7 ± 2.3
same,growth: increase in cell numbers relative to control wells (control = 100),[5]; lipid concentration 15 μM,0
same,IC50,[5],12 µM
